biological target: T1, AKT1 (Homo sapiens, UniProt P31749); assay: HTS ATP-utilizing enzyme assay, off-chip mobility-shift (Caliper HTS 250); format: biochemical; settings: kinase named = inhibitory activity/selectivity; test compound 10 μM; active = greater than three-sigma from mean
T1 construct: purchased Upstate 14-276
In short: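 AKT1 activity was measured by off-chip mobility shift (Caliper HTS 250) as the ratio of peptide substrate to phosphorylated product. Test compound was at 10 μM, with 2.5 h incubation at 20–22° C. EDTA wells served as 100% control and DMSO wells as 0%. Hits were called at three-sigma limits.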

T1 sequence (P31749 whole entry): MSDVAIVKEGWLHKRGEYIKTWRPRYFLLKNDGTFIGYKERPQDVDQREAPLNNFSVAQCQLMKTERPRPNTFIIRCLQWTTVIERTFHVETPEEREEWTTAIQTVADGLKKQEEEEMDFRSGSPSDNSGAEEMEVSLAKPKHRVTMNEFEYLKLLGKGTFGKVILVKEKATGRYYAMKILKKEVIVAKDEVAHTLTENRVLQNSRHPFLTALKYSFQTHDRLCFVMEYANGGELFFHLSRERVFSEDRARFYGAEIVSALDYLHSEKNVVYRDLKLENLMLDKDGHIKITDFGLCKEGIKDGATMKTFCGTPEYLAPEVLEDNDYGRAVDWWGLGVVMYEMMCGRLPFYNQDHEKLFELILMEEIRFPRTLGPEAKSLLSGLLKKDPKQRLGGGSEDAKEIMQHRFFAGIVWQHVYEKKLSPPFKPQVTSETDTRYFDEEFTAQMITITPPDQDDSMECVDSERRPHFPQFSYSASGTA

**Q.** With O=C(c1cccs1)N(CCCN1CCOCC1)c1nc(-c2ccc(N3CCOCC3)cc2)cs1 [N-(4-(4-morpholinophenyl)thiazol-2-yl)-N-(3-morpholinopropyl)thiophene-2-carboxamide] as the compound, how does the Activity read?
**A.** AKT1

**Q.** How did the Activity turn out when CN(C)C1CCN(CCCN(C(=O)c2cccs2)c2nc(-c3cc4ccccc4o3)cs2)C1 (centres unmarked) [N-(4-(benzofuran-2-yl)thiazol-2-yl)-N-(3-(3-(dimethylamino)pyrrolidin-1-yl)propyl)thiophene-2-carboxamide] was run?
**A.** AKT1

**Q.** For CCc1nnc(NC(=O)c2csc(N(CCCN3CCOCC3)C(=O)c3cccs3)n2)s1 [N-(5-ethyl-1,3,4-thiadiazol-2-yl)-2-(N-(3-morpholinopropyl)thiophene-2-carboxamido)thiazole-4-carboxamide], which Activity is on record?
**A.** AKT1

**Q.** O=C(c1cccs1)N(CCCN1CCOCC1)c1nc(-c2ccccc2)cs1 [N-(3-morpholinopropyl)-N-(4-phenylthiazol-2-yl)thiophene-2-carboxamide] was tested. Which Activity did it give?
**A.** AKT1

**Q.** With COc1ccc(OC)c(-c2csc(N(CCCN3CCCCCC3)C(=O)c3ccccc3)n2)c1 [N-(3-(azepan-1-yl)propyl)-N-(4-(2,5-dimethoxyphenyl)thiazol-2-yl)benzamide] as the compound, how does the Activity read?
**A.** AKT1

**Q.** Which Activity does the source give for Cc1ccc(-c2csc(N(CCCN3CCOCC3)C(=O)c3cccs3)n2)s1 [N-(4-(5-methylthiophen-2-yl)thiazol-2-yl)-N-(3-morpholinopropyl)thiophene-2-carboxamide] here?
**A.** AKT1

**Q.** How did the Activity turn out when O=C(C1CCC1)N(CCCN1CCOCC1)c1nc(-c2cc3ccccc3o2)cs1 [N-(4-(benzofuran-2-yl)thiazol-2-yl)-N-(3-morpholinopropyl)cyclobutanecarboxamide] was run?
**A.** AKT1

**Q.** Which Activity does the source give for NC(=O)CNC(=O)CCCN(C(=O)c1cccs1)c1nc(-c2cc3ccccc3o2)cs1 [N-(4-(2-amino-2-oxoethylamino)-4-oxobutyl)-N-(4-(benzofuran-2-yl)thiazol-2-yl)thiophene-2-carboxamide] here?
**A.** AKT1

**Q.** With O=C(Nc1ccc2c(c1)OCCO2)c1csc(N(CCCN2CCOCC2)C(=O)c2cccs2)n1 [N-(2,3-dihydrobenzo[b][1,4]dioxin-6-yl)-2-(N-(3-morpholinopropyl)thiophene-2-carboxamido)thiazole-4-carboxamide] as the compound, how does the Activity read?
**A.** AKT1

**Q.** For O=C(c1cccs1)N(CCCN1CCCC(CO)C1)c1nc(-c2cc3ccccc3o2)cs1 (centres unmarked) [N-(4-(benzofuran-2-yl)thiazol-2-yl)-N-(3-(3-(hydroxymethyl)piperidin-1-yl)propyl)thiophene-2-carboxamide], which Activity is on record?
**A.** AKT1

**Q.** How did the Activity turn out when CNC(=O)C1CCN(CCCN(C(=O)c2cccs2)c2nc(-c3cc4ccccc4o3)cs2)CC1 [1-(3-(N-(4-(benzofuran-2-yl)thiazol-2-yl)thiophene-2-carboxamido)propyl)-N-methylpiperidine-4-carboxamide] was run?
**A.** AKT1

**Q.** Which Activity does the source give for COc1ccc(OC)c(-c2csc(N(CCCN3CCCCC3)C(=O)c3ccco3)n2)c1 [N-(4-(2,5-dimethoxyphenyl)thiazol-2-yl)-N-(3-(piperidin-1-yl)propyl)furan-2-carboxamide] here?
**A.** AKT1

**Q.** How did the Activity turn out when CC(=O)NC1CCN(CCCN(C(=O)c2cccs2)c2nc(-c3cc4ccccc4o3)cs2)C1 (centres unmarked) [N-(3-(3-acetamidopyrrolidin-1-yl)propyl)-N-(4-(benzofuran-2-yl)thiazol-2-yl)thiophene-2-carboxamide] was run?
**A.** AKT1

**Q.** For O=C(c1cccs1)N(CCCN1CCOCC1)c1nc(-c2ccc(Cl)cc2)cs1 [N-(4-(4-chlorophenyl)thiazol-2-yl)-N-(3-morpholinopropyl)thiophene-2-carboxamide], which Activity is on record?
**A.** AKT1

**Q.** For O=C(c1ccccn1)N(CCCN1CCOCC1)c1nc(-c2cc3ccccc3o2)cs1 [N-(4-(benzofuran-2-yl)thiazol-2-yl)-N-(3-morpholinopropyl)picolinamide], which Activity is on record?
**A.** AKT1

**Q.** CN(C)CCOc1cccc(-c2csc(N(CCCN3CCOCC3)C(=O)c3cccs3)n2)c1 [N-(4-(3-(2-(dimethylamino)ethoxy)phenyl)thiazol-2-yl)-N-(3-morpholinopropyl)thiophene-2-carboxamide] was tested. Which Activity did it give?
**A.** AKT1

**Q.** With O=C(c1cccs1)N(CCCN1CCOCC1)c1nc(-c2ccc3c(c2)OCO3)cs1 [N-(4-(benzo[d][1,3]dioxol-5-yl)thiazol-2-yl)-N-(3-morpholinopropyl)thiophene-2-carboxamide] as the compound, how does the Activity read?
**A.** AKT1

**Q.** O=C(Nc1nncs1)c1csc(N(CCCN2CCOCC2)C(=O)c2cccs2)n1 [2-(N-(3-morpholinopropyl)thiophene-2-carboxamido)-N-(1,3,4-thiadiazol-2-yl)thiazole-4-carboxamide] was tested. Which Activity did it give?
**A.** AKT1

**Q.** For N#CCCN1CCN(CCCN(C(=O)c2cccs2)c2nc(-c3cc4ccccc4o3)cs2)CC1 [N-(4-(benzofuran-2-yl)thiazol-2-yl)-N-(3-(4-(2-cyanoethyl)piperazin-1-yl)propyl)thiophene-2-carboxamide], which Activity is on record?
**A.** AKT1

**Q.** With Cc1c(-c2csc(N(CCCN3CCOCC3)C(=O)c3cccs3)n2)sc2ccccc12 [N-(4-(3-methylbenzo[b]thiophen-2-yl)thiazol-2-yl)-N-(3-morpholinopropyl)thiophene-2-carboxamide] as the compound, how does the Activity read?
**A.** AKT1

**Q.** Which Activity does the source give for COc1ccc(-c2csc(N(CCCN3CCOCC3)C(=O)c3ccccc3F)n2)cc1 [2-fluoro-N-(4-(4-methoxyphenyl)thiazol-2-yl)-N-(3-morpholinopropyl)benzamide] here?
**A.** AKT1

**Q.** For O=C(CCN(C(=O)c1cccs1)c1nc(-c2cc3ccccc3o2)cs1)N1CCOCC1 [N-(4-(benzofuran-2-yl)thiazol-2-yl)-N-(3-morpholino-3-oxopropyl)thiophene-2-carboxamide], which Activity is on record?
**A.** AKT1

**Q.** O=C(c1cccs1)N(CCCN1CCOCC1)c1nc(C2CCCCC2)cs1 [N-(4-cyclohexylthiazol-2-yl)-N-(3-morpholinopropyl)thiophene-2-carboxamide] was tested. Which Activity did it give?
**A.** AKT1

**Q.** Which Activity does the source give for O=C(CCCN(C(=O)c1cccs1)c1nc(-c2cc3ccccc3o2)cs1)NCc1ccccn1 [N-(4-(benzofuran-2-yl)thiazol-2-yl)-N-(4-oxo-4-(pyridin-2-ylmethylamino)butyl)thiophene-2-carboxamide] here?
**A.** AKT1

**Q.** Which Activity does the source give for O=C(c1cccs1)N(CCCN1CCOCC1)c1nc(-c2cccc(Cl)c2)cs1 [N-(4-(3-chlorophenyl)thiazol-2-yl)-N-(3-morpholinopropyl)thiophene-2-carboxamide] here?
**A.** AKT1

**Q.** For COC(=O)C1CCCN1CCCN(C(=O)c1cccs1)c1nc(-c2cc3ccccc3o2)cs1 (centres unmarked) [methyl 1-(3-(N-(4-(benzofuran-2-yl)thiazol-2-yl)thiophene-2-carboxamido)propyl)pyrrolidine-2-carboxylate], which Activity is on record?
**A.** AKT1

**Q.** Which Activity does the source give for O=C(CCCN(C(=O)c1cccs1)c1nc(-c2cc3ccccc3o2)cs1)NCc1cccnc1 [N-(4-(benzofuran-2-yl)thiazol-2-yl)-N-(4-oxo-4-(pyridin-3-ylmethylamino)butyl)thiophene-2-carboxamide] here?
**A.** AKT1

**Q.** O=C(c1cccs1)N(CCCN1CCC(CO)CC1)c1nc(-c2cc3ccccc3o2)cs1 [N-(4-(benzofuran-2-yl)thiazol-2-yl)-N-(3-(4-(hydroxymethyl)piperidin-1-yl)propyl)thiophene-2-carboxamide] was tested. Which Activity did it give?
**A.** AKT1

**Q.** For Cn1cccc1C(=O)N(CCCN1CCCC1=O)c1nc(-c2cc3ccccc3o2)cs1 [N-(4-(benzofuran-2-yl)thiazol-2-yl)-1-methyl-N-(3-(2-oxopyrrolidin-1-yl)propyl)-1H-pyrrole-2-carboxamide], which Activity is on record?
**A.** AKT1

— patent publication US7795290B2 (Genentech, Inc., priority 2004, dated 2010)
